Test results: ChEMBL document CHEMBL1201862, “PubChem BioAssay data set” (2004)
Active and inactive are the calls of the source.

Legend:
Perilipin-1/ABHD5 = Perilipin-1/ABHD5 (Homo sapiens, UniProt O60240+Q8WTS1); test: Luminescence-based biochemical high throughput dose response assay for inhibitors of the interaction of the lipase co-activator protein, abhydrolase domain containing 5 (ABHD5) with perilipin-1 (PLIN1) (2K validation set). [Related pubchem assays (depositor defined):AID493027, AID493057]
Insulin-degrading enzyme = Insulin-degrading enzyme (Homo sapiens, UniProt P14735); test: Dose Response: Fluorescence polarization-based cell-based high throughput dose response assay for inhibitors of insulin-degrading enzyme (IDE). [Related pubchem assays: 434962 (Primary screen (IDE inhibitors in singlicate)), 449730 (Counterscreen (Cytotoxicity in triplicate)), 435028 (Confirmation (IDE inhibitors in triplicate)), 434984 (Summary …; type: functional
Chain of Insulin-degrading enzyme (P14735 whole entry): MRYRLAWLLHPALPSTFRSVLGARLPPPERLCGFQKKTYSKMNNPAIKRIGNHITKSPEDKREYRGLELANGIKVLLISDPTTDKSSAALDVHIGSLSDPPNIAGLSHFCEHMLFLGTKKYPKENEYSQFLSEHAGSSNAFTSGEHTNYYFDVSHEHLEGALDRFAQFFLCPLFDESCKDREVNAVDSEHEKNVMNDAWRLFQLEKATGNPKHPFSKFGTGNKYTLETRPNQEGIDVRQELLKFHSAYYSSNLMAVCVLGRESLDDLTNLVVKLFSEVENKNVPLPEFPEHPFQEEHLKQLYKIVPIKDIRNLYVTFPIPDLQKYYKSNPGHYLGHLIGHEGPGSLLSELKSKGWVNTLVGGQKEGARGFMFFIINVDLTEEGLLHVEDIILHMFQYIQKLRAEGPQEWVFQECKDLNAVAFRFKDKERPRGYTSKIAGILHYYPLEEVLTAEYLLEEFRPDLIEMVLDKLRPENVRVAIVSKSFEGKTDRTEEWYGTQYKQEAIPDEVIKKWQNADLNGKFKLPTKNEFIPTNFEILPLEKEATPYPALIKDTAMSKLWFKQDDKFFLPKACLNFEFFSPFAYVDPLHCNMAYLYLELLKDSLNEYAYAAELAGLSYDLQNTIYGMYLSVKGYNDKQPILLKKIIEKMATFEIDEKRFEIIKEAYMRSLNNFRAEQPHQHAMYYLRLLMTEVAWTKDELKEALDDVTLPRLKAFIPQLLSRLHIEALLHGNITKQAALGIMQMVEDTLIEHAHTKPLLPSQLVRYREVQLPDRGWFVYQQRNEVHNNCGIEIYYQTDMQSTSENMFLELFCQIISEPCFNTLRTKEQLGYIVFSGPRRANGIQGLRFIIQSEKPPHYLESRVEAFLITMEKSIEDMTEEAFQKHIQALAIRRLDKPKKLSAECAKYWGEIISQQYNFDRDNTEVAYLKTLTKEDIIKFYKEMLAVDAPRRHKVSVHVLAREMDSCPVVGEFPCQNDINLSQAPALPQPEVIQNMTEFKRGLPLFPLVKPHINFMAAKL

[1] = Counterscreen for IDE inhibitors: Luminescence-based cell-based high throughput dose response assay to identify compounds that are cytotoxic to HEK cells. [Related pubchem assays: 434962 (Primary screen (IDE inhibitors in singlicate)), 449730 (Counterscreen (Cytotoxicity in triplicate)), 435028 (Confirmation (IDE inhibitors in triplicate)) …; type: functional; details: HEK293
[2] = target: T1, Zinc finger protein mex-5 (Caenorhabditis elegans, UniProt Q9XUB2); test: MEX-5/TCR-2 RNA interaction inhibitors, dose response, biochemical, C. elegans, fluorescence polarization (AID 1960)
T1 sequence (Q9XUB2 whole entry): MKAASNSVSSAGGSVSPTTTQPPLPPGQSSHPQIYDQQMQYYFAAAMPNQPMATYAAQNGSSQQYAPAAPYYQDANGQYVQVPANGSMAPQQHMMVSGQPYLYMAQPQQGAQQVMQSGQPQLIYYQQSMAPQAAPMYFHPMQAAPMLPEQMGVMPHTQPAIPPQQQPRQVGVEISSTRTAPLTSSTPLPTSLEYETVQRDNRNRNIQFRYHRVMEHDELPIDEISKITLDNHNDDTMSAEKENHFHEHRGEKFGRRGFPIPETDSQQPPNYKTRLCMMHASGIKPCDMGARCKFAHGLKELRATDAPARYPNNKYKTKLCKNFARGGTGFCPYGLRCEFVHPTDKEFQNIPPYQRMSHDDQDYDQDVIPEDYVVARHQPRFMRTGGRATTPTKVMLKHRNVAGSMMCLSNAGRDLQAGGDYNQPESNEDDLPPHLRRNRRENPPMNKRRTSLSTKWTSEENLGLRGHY

[3] = target: T2, RNA-binding protein pos-1 (Caenorhabditis elegans, UniProt G5EF15); test: inhibitors of POS-1/mex-3 RNA binding, dose response, biochemical, fluorescence polarization (AID 1964);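 note: purified POS-1 fused to maltose binding protein made in E. coli; potency of compounds blocking POS-1 binding to fluorescent RNA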
T2 sequence (G5EF15 whole entry): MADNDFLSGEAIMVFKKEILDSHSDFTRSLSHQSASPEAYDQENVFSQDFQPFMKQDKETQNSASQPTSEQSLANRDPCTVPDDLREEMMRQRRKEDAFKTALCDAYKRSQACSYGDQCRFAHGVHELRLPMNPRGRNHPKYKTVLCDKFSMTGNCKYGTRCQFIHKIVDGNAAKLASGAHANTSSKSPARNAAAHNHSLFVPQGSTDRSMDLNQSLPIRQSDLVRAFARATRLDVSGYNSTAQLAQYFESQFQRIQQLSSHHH

[4] = target: 1-acylglycerol-3-phosphate O-acyltransferase ABHD5/Perilipin-5 (Homo sapiens, UniProt Q00G26+Q8WTS1); test: Luminescence-based biochemical high throughput dose response assay for inhibitors of the interaction of the lipase co-activator protein, abhydrolase domain containing 5 (ABHD5) with perilipin-5 (MLDP; PLIN5) (2K validation set). [Related pubchem assays (depositor defined):AID493035, AID493241]
[5] = target: Alkaline phosphatase, placental type (Homo sapiens, UniProt P05187); test: PLAP enzyme inhibitors, confirmation, biochemical, luminescence (AID 1512); type: functional
Chain of Alkaline phosphatase, placental type (P05187 whole entry): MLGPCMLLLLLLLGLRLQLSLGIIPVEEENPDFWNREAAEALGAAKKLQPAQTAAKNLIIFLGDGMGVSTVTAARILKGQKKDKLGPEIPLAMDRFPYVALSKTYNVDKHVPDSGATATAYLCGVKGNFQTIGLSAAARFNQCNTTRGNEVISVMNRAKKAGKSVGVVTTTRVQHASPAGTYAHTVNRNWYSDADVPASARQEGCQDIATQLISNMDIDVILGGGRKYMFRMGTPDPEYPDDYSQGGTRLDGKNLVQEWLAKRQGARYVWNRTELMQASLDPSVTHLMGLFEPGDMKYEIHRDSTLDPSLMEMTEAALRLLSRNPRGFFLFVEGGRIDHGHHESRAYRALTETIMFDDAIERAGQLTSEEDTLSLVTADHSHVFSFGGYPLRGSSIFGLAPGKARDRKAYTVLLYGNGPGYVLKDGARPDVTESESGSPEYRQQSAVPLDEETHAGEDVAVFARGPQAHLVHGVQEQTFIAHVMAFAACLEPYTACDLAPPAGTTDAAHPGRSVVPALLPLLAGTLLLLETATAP

[6] = growth suppression of PTEN-null colon cells, dose response, cell-based, HCT116 PTEN knockout (AID 1047); type: functional;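 note: HCT116 colon tumor cells with PTEN knocked out; cells exposed to compound for 60 hours before readout; potency for loss of cell viability measured by luminescence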
[7] = growth suppression of beta-catenin-knockout colon cells, dose response, cell-based, HCT116, human colon tumor (AID 1045); type: functional;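 note: HCT116 colon tumor cells with beta catenin knocked out; cells exposed to compound for 60 hours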
[8] = target: T3, Alkaline phosphatase, tissue-nonspecific isozyme (Homo sapiens, UniProt P05186); test: human TNAP enzyme inhibitors, SAR follow-up, biochemical, luminescent, dose response (AID 1056)
T3 sequence (P05186 whole entry): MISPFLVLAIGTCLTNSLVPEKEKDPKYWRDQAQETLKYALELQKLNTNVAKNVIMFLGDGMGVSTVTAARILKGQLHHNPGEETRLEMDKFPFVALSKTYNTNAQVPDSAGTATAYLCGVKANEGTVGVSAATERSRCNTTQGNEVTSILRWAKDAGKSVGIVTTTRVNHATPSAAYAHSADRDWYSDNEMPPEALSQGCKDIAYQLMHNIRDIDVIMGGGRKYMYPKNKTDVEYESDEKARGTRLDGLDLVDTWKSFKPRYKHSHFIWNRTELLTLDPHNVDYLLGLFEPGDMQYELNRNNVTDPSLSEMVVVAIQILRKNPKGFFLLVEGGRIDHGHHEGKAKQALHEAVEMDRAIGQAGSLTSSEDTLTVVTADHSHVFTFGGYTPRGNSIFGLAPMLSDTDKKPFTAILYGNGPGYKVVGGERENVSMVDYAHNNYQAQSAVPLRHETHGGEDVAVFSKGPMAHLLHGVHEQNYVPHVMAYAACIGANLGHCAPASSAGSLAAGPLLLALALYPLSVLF

Coagulation factor XII = target: T4, Coagulation factor XII (Homo sapiens, UniProt P00748); test: FXIIa inhibitor potency, concentration-response, biochemical (AID 716); type: functional
T4 sequence (P00748 whole entry): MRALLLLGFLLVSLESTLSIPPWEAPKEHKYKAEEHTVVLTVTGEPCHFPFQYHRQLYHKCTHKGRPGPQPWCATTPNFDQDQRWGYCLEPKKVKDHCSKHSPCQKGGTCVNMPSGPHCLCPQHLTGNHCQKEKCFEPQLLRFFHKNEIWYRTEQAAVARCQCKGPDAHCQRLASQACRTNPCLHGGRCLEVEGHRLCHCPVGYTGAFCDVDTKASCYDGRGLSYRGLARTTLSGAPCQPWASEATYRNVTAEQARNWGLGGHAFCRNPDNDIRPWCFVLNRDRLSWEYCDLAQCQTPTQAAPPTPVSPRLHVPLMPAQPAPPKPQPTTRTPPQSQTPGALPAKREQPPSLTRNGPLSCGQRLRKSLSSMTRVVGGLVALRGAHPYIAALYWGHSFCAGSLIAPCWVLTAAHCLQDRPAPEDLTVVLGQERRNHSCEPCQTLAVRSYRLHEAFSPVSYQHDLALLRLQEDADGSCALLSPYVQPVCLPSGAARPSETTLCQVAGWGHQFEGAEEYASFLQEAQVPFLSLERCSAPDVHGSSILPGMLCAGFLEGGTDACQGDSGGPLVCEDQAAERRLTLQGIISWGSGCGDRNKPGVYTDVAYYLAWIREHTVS

Ion channel NompC = Ion channel NompC (Danio rerio, UniProt Q7T1G6); test: Dose response cell-based high-throughput screening assay for agonists of the transient receptor potential channel N1 (TRPN1). [Related pubchem assays (depositor defined):AID1424, AID1448]; type: functional
Exodeoxyribonuclease V = Exodeoxyribonuclease V (Escherichia coli (strain K12), UniProt P04993+P07648+P08394); test: E. coli RecBCD inhibitors, dose response, counter-screen for AddAB inhibitor project, absorbance, V66 E. coli, mutant T4 phage (AID 492957); type: functional, cell-based, Escherichia coli str. K-12 substr. MG1655
[9] = Counterscreen for AddAB inhibitors: absorbance-based bacterial cell-based high throughput dose response assay for inhibitors of bacterial viability. [Related pubchem assays (depositor defined):AID435030, AID449728, AID449731, AID488942, AID488955, AID488956]; type: functional
[10] = target: T5, Short transient receptor potential channel 4 (Mus musculus, UniProt Q9QUQ5); test: mouse TRPC4 channel activators, dose response, cell-based, HEK293 TRPC4/mu-opioid, Fluo-4 calcium (AID 434937); type: functional
T5 sequence (Q9QUQ5 whole entry): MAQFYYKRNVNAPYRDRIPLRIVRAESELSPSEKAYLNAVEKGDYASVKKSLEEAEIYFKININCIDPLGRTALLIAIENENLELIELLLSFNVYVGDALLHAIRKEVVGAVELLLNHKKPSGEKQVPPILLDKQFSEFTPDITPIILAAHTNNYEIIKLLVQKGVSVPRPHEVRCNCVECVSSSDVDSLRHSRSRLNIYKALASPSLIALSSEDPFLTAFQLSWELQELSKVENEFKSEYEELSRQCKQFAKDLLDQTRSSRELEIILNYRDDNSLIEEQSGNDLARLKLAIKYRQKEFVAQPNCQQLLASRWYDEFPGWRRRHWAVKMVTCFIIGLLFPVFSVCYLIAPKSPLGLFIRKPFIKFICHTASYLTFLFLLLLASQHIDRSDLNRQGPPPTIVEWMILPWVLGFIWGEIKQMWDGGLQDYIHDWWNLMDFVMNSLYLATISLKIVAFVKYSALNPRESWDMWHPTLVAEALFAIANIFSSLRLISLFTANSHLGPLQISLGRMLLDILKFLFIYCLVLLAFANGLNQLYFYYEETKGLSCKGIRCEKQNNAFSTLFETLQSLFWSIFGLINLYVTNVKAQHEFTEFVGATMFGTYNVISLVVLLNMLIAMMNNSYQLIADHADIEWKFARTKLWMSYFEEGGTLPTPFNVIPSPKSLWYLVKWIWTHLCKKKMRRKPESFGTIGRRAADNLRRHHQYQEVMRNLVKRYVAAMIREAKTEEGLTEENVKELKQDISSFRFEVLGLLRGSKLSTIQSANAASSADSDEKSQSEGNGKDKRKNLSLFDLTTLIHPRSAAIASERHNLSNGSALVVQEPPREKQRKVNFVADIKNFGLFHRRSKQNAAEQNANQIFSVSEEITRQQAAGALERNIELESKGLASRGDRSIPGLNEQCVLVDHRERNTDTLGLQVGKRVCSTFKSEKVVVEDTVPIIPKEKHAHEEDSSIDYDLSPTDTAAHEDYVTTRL

Mucolipin-3 = Mucolipin-3 (Homo sapiens, UniProt Q8TDD5); test: Fluorescence counterscreen assay for […] agonists: dose response cell-based high-throughput screening assay to identify agonists of the transient receptor potential channel ML3 (TRPML3). [Related pubchem assays: 1424, 1448 ]; type: functional
Chain of Mucolipin-3 (Q8TDD5 whole entry): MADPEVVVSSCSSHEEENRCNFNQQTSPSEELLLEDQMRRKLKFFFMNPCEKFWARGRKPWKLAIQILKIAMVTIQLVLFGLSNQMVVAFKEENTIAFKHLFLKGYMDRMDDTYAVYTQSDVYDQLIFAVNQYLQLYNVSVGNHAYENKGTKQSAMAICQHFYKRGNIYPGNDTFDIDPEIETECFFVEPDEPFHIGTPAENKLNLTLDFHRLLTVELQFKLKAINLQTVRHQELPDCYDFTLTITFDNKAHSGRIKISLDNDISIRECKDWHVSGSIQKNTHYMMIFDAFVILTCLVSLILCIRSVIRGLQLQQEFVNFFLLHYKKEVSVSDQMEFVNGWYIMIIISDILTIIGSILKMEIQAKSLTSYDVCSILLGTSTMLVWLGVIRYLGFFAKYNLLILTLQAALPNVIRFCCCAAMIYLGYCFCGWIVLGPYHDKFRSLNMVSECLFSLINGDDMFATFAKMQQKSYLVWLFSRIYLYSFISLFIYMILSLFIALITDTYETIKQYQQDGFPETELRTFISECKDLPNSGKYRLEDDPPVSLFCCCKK

Vero = test: cells; type: functional; details: Chlorocebus sabaeus
[11] = decrease of PhoP-driven GFP reporter signal, S. Typhimurium, dose response, PhoP regulon inhibitor project, purified and synthesized compounds, set 2 (AID 2831); type: functional
[12] = Shn3 3'UTR reporter inhibitors, dose response, cell-based, Clone20 osteoblasts, firefly luciferase, cherry-picked (AID 624132); type: functional;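 note: firefly luciferase luminescence from reporter carrying the Shn3 3'UTR in osteoblasts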
Integrin alpha-L = Integrin alpha-L (Mus musculus, UniProt P24063); test: modulators of CD8 T cell-vesicle binding, dose response, powder samples, mouse 2C CD8+ cells (AID 504565); type: functional
Chain of Integrin alpha-L (P24063 whole entry): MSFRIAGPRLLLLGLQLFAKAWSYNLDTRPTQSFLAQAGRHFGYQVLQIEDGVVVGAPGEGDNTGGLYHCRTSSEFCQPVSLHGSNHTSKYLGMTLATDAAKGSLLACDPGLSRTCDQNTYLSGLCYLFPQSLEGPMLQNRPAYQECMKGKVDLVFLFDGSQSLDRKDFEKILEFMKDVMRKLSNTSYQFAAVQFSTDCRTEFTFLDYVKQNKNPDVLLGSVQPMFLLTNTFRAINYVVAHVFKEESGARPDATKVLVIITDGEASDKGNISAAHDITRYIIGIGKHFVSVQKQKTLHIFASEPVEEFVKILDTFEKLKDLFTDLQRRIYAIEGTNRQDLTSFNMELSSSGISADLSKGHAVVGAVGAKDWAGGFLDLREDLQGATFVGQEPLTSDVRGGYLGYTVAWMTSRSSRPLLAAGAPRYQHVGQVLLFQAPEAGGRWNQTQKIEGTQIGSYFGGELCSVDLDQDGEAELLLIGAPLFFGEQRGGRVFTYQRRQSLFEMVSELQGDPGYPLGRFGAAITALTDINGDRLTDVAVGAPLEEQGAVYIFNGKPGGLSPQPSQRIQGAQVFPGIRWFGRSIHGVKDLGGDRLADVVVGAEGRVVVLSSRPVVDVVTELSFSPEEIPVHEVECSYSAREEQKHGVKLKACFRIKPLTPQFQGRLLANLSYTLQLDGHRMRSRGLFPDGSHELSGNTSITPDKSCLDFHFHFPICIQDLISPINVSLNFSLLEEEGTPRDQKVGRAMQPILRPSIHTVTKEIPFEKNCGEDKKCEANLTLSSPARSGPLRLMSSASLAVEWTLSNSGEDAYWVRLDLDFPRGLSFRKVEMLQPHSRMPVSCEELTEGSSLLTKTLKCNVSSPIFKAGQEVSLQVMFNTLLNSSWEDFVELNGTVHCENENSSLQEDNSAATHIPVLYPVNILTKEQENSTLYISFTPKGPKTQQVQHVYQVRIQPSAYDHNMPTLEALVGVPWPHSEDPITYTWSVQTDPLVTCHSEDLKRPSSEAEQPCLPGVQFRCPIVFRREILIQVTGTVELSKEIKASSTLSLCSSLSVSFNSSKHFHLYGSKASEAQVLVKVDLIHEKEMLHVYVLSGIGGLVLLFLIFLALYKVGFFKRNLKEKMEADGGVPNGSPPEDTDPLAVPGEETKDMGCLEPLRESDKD

[13] = target: T6, Tyrosine-protein phosphatase non-receptor type 7 (Homo sapiens, UniProt P35236); test: HePTP (PTPN7) phosphatase inhibitor potency, SAR follow-up, biochemical, set 2 (AID 449736); type: functional
T6 sequence (P35236 whole entry): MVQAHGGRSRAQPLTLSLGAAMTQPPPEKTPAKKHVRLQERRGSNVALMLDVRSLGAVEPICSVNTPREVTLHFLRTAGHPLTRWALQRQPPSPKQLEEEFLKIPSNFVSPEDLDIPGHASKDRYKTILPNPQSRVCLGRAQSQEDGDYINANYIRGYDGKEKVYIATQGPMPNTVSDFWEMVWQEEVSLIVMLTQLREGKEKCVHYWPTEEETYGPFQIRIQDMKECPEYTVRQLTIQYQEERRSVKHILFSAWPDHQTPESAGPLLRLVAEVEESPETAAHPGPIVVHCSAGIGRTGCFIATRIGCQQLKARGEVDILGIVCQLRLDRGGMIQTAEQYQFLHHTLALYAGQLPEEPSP

[14] = target: T7, Kappa-type opioid receptor (Homo sapiens, UniProt P41145); test: SAR analysis of small molecule antagonists of the kappa opioid receptor via a luminescent beta-arrestin assay - Set 3. [Related pubchem assays (depositor defined):AID1777, AID1778, AID1785, AID1786, AID1966, AID2133, AID2136, AID2285, AID2495]; type: functional
T7 sequence (P41145 whole entry): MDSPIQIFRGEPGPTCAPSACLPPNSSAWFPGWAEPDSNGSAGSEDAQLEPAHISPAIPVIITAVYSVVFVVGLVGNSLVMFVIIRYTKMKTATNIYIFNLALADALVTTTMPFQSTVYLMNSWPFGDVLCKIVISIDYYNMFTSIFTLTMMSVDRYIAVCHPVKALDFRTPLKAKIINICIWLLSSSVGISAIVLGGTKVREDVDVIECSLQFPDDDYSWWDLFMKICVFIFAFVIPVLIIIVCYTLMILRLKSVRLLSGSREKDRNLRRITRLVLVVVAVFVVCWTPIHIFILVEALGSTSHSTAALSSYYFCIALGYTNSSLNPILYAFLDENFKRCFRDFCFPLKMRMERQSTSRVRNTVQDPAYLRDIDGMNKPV

[15] = target: T7, Kappa-type opioid receptor; test: SAR analysis of Antagonists of the Kappa Opioid Receptor (KOR) using an Image-Based Assay - Set 3. [Related pubchem assays (depositor defined):AID1777, AID1785]; type: functional
[16] = target: Delta-type opioid receptor (Homo sapiens, UniProt P41143); test: SAR Analysis of Antagonists of the DOR Receptor using an Image-Based Assay - Set 3. [Related pubchem assays (depositor defined):AID1777, AID1785]; type: functional;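 note: U2OS cells expressing DOR1 and beta-arrestin GFP stimulated with 100 nM SNC80; imaging of GFP-tagged beta-arrestin moving into spots after receptor activation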
Chain of Delta-type opioid receptor (P41143 whole entry): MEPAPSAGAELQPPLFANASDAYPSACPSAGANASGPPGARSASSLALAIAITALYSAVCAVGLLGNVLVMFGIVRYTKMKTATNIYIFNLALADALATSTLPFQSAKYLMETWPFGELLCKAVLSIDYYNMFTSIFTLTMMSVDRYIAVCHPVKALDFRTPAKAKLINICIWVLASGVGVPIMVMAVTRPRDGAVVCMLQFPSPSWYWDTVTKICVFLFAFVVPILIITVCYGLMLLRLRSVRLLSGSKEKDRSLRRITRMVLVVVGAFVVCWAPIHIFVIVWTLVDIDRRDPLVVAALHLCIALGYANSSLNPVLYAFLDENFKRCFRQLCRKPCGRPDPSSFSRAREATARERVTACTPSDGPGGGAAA

Mu-type opioid receptor = Mu-type opioid receptor (Homo sapiens, UniProt P35372); test: SAR Analysis of Antagonists of the MOR Receptor using an Image-Based Assay - Set 3. [Related pubchem assays (depositor defined):AID1777, AID1785, AID1786, AID1966, AID2133, AID2136, AID2284, AID2285, AID2420]; type: functional
Chain of Mu-type opioid receptor (P35372 whole entry): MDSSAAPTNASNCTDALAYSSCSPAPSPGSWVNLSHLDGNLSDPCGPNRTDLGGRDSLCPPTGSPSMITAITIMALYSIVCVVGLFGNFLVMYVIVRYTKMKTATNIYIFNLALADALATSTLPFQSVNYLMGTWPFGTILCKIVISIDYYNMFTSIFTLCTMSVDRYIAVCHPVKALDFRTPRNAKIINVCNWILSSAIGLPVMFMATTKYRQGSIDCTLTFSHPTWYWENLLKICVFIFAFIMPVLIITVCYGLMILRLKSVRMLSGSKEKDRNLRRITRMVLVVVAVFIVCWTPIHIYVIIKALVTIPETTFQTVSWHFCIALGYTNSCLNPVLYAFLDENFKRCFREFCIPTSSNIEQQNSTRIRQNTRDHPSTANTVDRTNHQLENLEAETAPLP

## CS(=O)(=O)Oc1ccc2c(c1)O/C(=C\C=C\c1ccccc1)C2=O
Perilipin-1/ABHD5
  IC50: 11 µM (inactive)
Insulin-degrading enzyme
  IC50: > 55.9 µM (not active)
[1]
  IC50: 19.4 µM (not active)
[2]
  EC50: 3.83 µM (active)
[3]
  EC50: 5.46 µM (active)
[4]
  IC50: 17.6 µM (inactive)

## O=C(NC1(C(F)(F)F)Oc2ccccc2O1)N1CCCC1
[5]
  IC50: 80.9 µM (active)
[6]
  EC50: 15.4 µM (active)
[7]
  EC50: 18 µM (active)
[8]
  IC50: > 100 µM (inactive)

## COc1ccc(-c2nnc(SCC(=O)Nc3cc(C)on3)n2N)cc1OC
Coagulation factor XII
  IC50: > 50 µM (inactive)

## O=C(Nc1nnc(-c2cccs2)o1)c1cccc(C(F)(F)F)c1
Ion channel NompC
  EC50: 3.33 µM (active)
Exodeoxyribonuclease V
  IC50: 68.2 µM (inactive)
[9]
  IC50: > 39.5 µM (inactive)
[10]
  EC50: 11.9 µM (active)
Mucolipin-3
  EC50: 4.5 µM (active)
Vero
  CC50: > 25 µM (active)
[11]
  IC50: > 125 µM (active)

## CN(CC(=O)Nc1cc(S(=O)(=O)N2CCCC2)ccc1Cl)Cc1ccc2c(c1)OCO2
[12]
  AC50: 13.1 µM (active)
Integrin alpha-L
  EC50: 0.197 µM (active)

## Cc1ccccc1-n1c(N)c(C(=O)N2CCOCC2)sc1=S
[13]
  IC50: > 100 µM (inactive)

## Cc1ccc(S(=O)(=O)NCc2ccc(C(=O)NCCN3Cc4ccccc4C3)cc2)cc1
[14]
  IC50: > 20 µM (inactive)
[15]
  IC50: > 32 µM (inactive)
[16]
  IC50: > 32 µM (inactive)
Mu-type opioid receptor
  IC50: > 32 µM (inactive)
